Results from patent publication US12103946B2, “Steroid compounds as Treg modulators and uses thereof” (New York University, priority 2018, dated 2024).

Columns and labels:
[1] = Bile acid quantification in mouse cecal contents by UPLC-MS; details: mice fed 0.3% (w/w) 3-oxoLCA chow for one week
Text: Data are shown as the mean±standard deviation by unpaired t-test with 2-tailed p-value.

CD4+ T cells = assay: TCR activation markers (CD25, CD69, Nur77, CD44); format: cell-based, mouse
Text: Representative FACS plots of CD4^+ T cells cultured for 3 days and stained intracellularly for FoxP3 (e). Quantification of FoxP3^+ and viable T cells after 3-day culture (f) (n=2/group). n, number of biologically independent samples. Data are representative of two independent experiments (b, d). Data in (c) are shown as the mean±standard deviation.

[2] = tested on: naïve CD4+ T cells (Treg differentiation, FoxP3); assay: In vitro Treg differentiation, FoxP3 staining by flow cytometry; format: cell-based, mouse
Text: To determine if bile acids influence T cell functions, the present inventors performed a small-scale screening assay with a small molecule library comprising secondary bile acids with in vitro Treg differentiation as a read-out. Naïve CD4^+ T lymphocytes were sorted from wild-type B6 mice and cultured in the presence of a TCR stimulus, interleukin 2 (IL-2), and different amounts of TGFβ (optimized for Treg differentiation). Treg differentiation was quantified at the single cell level by staining with an antibody specific for FoxP3, followed by flow cytometry analysis. Retinoic acid, a known enhancer of Treg differentiation, was used as a positive control.
Our screen included both primary bile acids, synthesized by the host, and secondary bile acids, produced by bacterial modification of primary bile acids (FIG. 5). Naïve CD4^+ T cells were isolated from wild-type C57BL/6J (B6) mice and cultured with bile acids under Th17 differentiation conditions and, as a counter-screen, Treg differentiation conditions (FIG. 6).
In Vitro T Cell Culture. Naïve CD4^+ (CD62L^+ CD44^− CD25^− CD4^+) T cells were isolated from the spleens and the lymph nodes of mice of designated genotypes with FACS sorting. For certain experiments, naïve CD4^+ T cells were enriched using naïve CD4^+ T cell isolation kits (Miltenyi). Naïve CD4^+ T cells (40,000 cells) were cultured in a 96-well plate pre-coated with hamster IgG (MP Biomedicals) in T cell medium (RPMI, 10% fetal bovine serum, 25 mM glutamine, 55 μM 2-mercaptoethanol, 100 U/mL penicillin, […] streptomycin) supplemented with 0.25 μg/mL anti-CD3 (clone 145-2C11) and 1 μg/mL anti-CD28 (clone 37.51). For Th0 culture, T cells were cultured with the addition of 100 U/mL of IL-2 (PEPROTECH). For Th1 cell differentiation, T cells were cultured with the addition of 100 U/mL of IL-2, 10 μg/mL of anti-IL-4 (clone 11B11) and 10 ng/mL of IL-12 (PEPROTECH). For Th2 cell differentiation, T cells were cultured with the addition of 10 μg/mL of anti-IFNγ (clone XMG1.2) and 10 ng/mL of IL-4 (R&D Systems). For Th17 cell differentiation, T cells were cultured with the addition of 10 ng/mL of IL-6 (eBioscience) and 0.5 ng/mL of TGF-β (PEPROTECH). For Treg culture, T cells were cultured with the addition of 100 U/mL of IL-2 and various concentrations of TGF-β. […] Bile acids, retinoic acid (Sigma) or mitoQ (Focus Biomolecules), or mitoPQ (Sigma) were added either at 0 or 16 h time points. Compounds with low water solubility were sonicated before adding to the culture. Cells were harvested and assayed by flow cytometry on day 3. For ROS and mitochondrial membrane potential detection, cells cultured for 2 days were incubated with 5 μM of mitoSOX (ThermoFisher), 10 μM of DCFDA (Sigma) or 2 μM of JC-1 (ThermoFisher) for 30 min and assayed with flow cytometry.
Flow Cytometry. Cells harvested from in vitro culture or in vivo mice experiments were stimulated with 50 ng/mL PMA (Phorbol 12-myristate 13-acetate, Sigma) and 1 μM ionomycin (Sigma) in the presence of GolgiPlug (BD) for 4 h to determine cytokine expression. After stimulation, cells were stained with cell surface marker antibodies and LIVE/DEAD Fixable dye, Aqua, to exclude dead cells, fixed and permeabilized with a FoxP3/Transcription factor staining kit (eBioscience), followed by staining with cytokine- and/or transcription factor-specific antibodies. All flow cytometry analyses were performed on an LSR II flow cytometer (BD) and data were analyzed with FlowJo software (TreeStar).

average concentration in cecal contents [1]: 24 picomol/mg of wet mass
Structure (SMILES): C[C@H](CCC(=O)O)[C@H]1CC[C@H]2[C@@H]3CC[C@@H]4CC(=O)CC[C@]4(C)[C@H]3CC[C@]12C [3-oxoLCA, 3-oxolithocholic acid]
T cell receptor (TCR)-mediated activation (CD4+ T cells): do not significantly affect cell proliferation, cell viability, or T cell activation
effect on Treg differentiation induced by isoalloLCA ([2]; 3-oxoLCA 20 μM + isoalloLCA 20 μM): further enhanced Treg differentiation induced by isoalloLCA in vitro
Treg differentiation (FoxP3 expression) ([2]; bile acids 20 μM, 3 days, anti-CD3/28, IL-2): did not affect Tregs
